Assay results as given in BindingDB's records for doi:10.7270/Q2N014XN (Srmlsc, 2007).

The molecules below were run against T1, Diphosphomevalonate decarboxylase (Streptococcus pneumoniae serotype 2 (strain D39 / NCTC 7466), UniProt A0A0H2ZN59) (assay: S. pneumoniae DPM-DC inhibitor potency, dose response, biochemical, PK/LDH-coupled NADH fluorescence, hexokinase coupling counter-screen (AID 550)). Conditions: not given.
T1 sequence (A0A0H2ZN59 whole entry): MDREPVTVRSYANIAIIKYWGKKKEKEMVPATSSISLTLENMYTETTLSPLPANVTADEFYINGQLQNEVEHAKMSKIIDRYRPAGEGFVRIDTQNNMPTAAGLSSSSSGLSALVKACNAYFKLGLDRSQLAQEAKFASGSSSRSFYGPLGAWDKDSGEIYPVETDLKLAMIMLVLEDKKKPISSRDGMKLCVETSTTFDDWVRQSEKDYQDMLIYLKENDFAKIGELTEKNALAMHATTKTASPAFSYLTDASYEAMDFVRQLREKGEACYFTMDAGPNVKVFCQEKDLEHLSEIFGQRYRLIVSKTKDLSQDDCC

SMILES | IC50
COc1cc2c(cc1NC(=O)c1ccc3c(c1)OCO3)oc1ccccc12 [MLS000088875] | > 10000 µM
O=C1CCC(C(=O)N(Cc2ccco2)C2(C(=O)NC3CCCC3)CCCCC2)N1 (stereo not drawn) [MLS000090457] | > 10000 µM
COc1ccc(N2CCN(CCNS(=O)(=O)c3cccc4nsnc34)CC2)cc1 [MLS000090468] | > 10000 µM
O=C(CCc1nc(-c2ccccc2F)no1)NCCN1CCc2ccccc2C1 [MLS000091170] | > 10000 µM
COc1ccccc1-c1nc(C(N)=O)c2[nH]c(=O)n(-c3cccc(C)c3)c2n1 [MLS000094139] | 21.6 µM
CC(=O)NCCn1c(SCc2cc(=O)n3cc(Cl)ccc3n2)nc2ccccc2c1=O [MLS000095256] | 70.6 µM
O=c1c2cc(N3CCOCC3)ccc2[nH]c(=S)n1Cc1ccccn1 [MLS000095415] | 36.1 µM
COCCCn1c(=S)[nH]c2ccc(N3CCOCC3)cc2c1=O [MLS000095418] | 26.7 µM
COc1ccccc1CNc1ncnc2nc[nH]c12 [MLS000101257] | > 10000 µM
Cn1/c(=N/C(=O)c2ccco2)sc2cccc(F)c21 [MLS000101506] | > 10000 µM
CC1Cc2nc(SCC(=O)Nc3ccc4c(c3)OCO4)n(CCc3ccccc3)c(=O)c2S1 (stereo not drawn) [MLS000101671] | > 10000 µM
CCc1ccc(NC(=O)c2cnc3scc(C)n3c2=O)cc1 [MLS000102000] | > 10000 µM
Cc1cccc(C(=O)Nc2cc(=O)n(C)c(=O)n2C)c1 [MLS000103605] | > 10000 µM
O=C(c1cc2nc(-c3ccc(F)cc3)cc(C(F)(F)F)n2n1)N1CCCC1 [MLS000109312] | 53 µM
CCC(=O)Nc1nnc(Sc2ccc(N(C)C)cc2)s1 [MLS000109846] | > 10000 µM
Sc1nnc(-c2ccccc2)n1C1C=CCCC1 (stereo not drawn) [MLS000111390] | > 10000 µM
COC(=O)Cc1sc(=O)[nH]c1Nc1ccccc1 [MLS000111966] | > 10000 µM
CC1CC(C)CN(CCCNC(=O)Cn2ncc3c(=O)oc4ccccc4c32)C1 (stereo not drawn) [MLS000116997] | > 10000 µM

SMILES | IC50
CCOc1ccc(N(CC(=O)NC2CCCC(C)C2C)S(=O)(=O)c2c(C)noc2C)cc1 (stereo not drawn) [MLS000117395] | > 10000 µM
CCOc1ccc(N(CC(=O)Nc2ccc(F)c(F)c2)S(=O)(=O)c2c(C)noc2C)cc1 [MLS000117397] | > 10000 µM
CCN(CCNC(=O)C1CCN(c2nnc(-n3cccc3)s2)CC1)c1ccccc1 [MLS000119699] | > 10000 µM
CCOc1cc2[nH]c(=O)n(Cc3ccc(C(=O)NCCOC)cc3)c(=O)c2cc1OCC [MLS000120003] | 183 µM
CN(C)S(=O)(=O)c1cccc(C(=O)C2=C3SC=C(c4ccccc4)N3CC2)c1 [N,N-dimethyl-3-[(3-phenyl-5,6-dihydropyrrolo[2,1-b][1,3]thiazol-7-yl)carbonyl]benzenesulfonamide] | > 10000 µM
COCCN(Cc1cc2cc3c(cc2[nH]c1=O)OCO3)C(=O)c1cccs1 [N-(2-methoxyethyl)-N-[(6-oxidanylidene-5H-[1,3]dioxolo[4,5-g]quinolin-7-yl)methyl]thiophene-2-carboxamide] | 37.6 µM
COc1ccccc1NC(=O)CSc1nc(O)cc(=O)n1-c1ccccc1OC [N-(2-methoxyphenyl)-2-[1-(2-methoxyphenyl)-6-oxidanyl-4-oxidanylidene-pyrimidin-2-yl]sulfanyl-ethanamide] | > 10000 µM
Cc1cccc2cc(CN(Cc3ccco3)S(=O)(=O)c3ccc4c(c3)OCCO4)c(=O)[nH]c12 [N-(furan-2-ylmethyl)-N-[(8-methyl-2-oxidanylidene-1H-quinolin-3-yl)methyl]-2,3-dihydro-1,4-benzodioxine-6-sulfonamide] | > 10000 µM
CCN(CC)CCCN(Cc1cc2cc3c(cc2nc1O)OCCO3)C(=O)Nc1ccccc1 [SMR000004152] | > 10000 µM
Nc1cc(N)cc(-c2nc3ccccc3[nH]2)c1 [SMR000008815] | 79.1 µM
COc1ccc(-c2nc(C(N)=O)c3[nH]c(=O)n(-c4cccc(C)c4)c3n2)c(OC)c1 [SMR000016861] | 128 µM
CCOC(=O)c1sc(Nc2nc3c(OC)cccc3s2)nc1C [SMR000027213] | 2.35 µM
O=c1c2cc(N3CCOCC3)ccc2[nH]c(=S)n1CCCN1CCN(c2ccccc2F)CC1 [SMR000030978] | 58.7 µM
Cc1ccc(C2C3CN(C(C)C)CCC3=C(C#N)C(=N)C2(C#N)C#N)cc1 (stereo not drawn) [SMR000034220] | 39.6 µM
Cc1nc(-c2cnn(-c3ccccc3)c2)c2cc(C)oc2n1 [SMR000046165] | > 10000 µM
N#Cc1c(S)nc2c(c1-c1cccnc1)CCCC2 [SMR000104204] | 20.1 µM
CCOC(=O)C1=C(C)N=C(C)C(C(=O)OCC)C1c1cc2ccc(C)cc2[nH]c1=O (stereo not drawn) [diethyl 2,6-dimethyl-4-(7-methyl-2-oxidanylidene-1H-quinolin-3-yl)-1,4-dihydropyridine-3,5-dicarboxylate] | 150 µM

Same assay, conditions: inactive by the depositor's call

SMILES | IC50
Cc1csc2ncc(C(=O)Nc3ccccc3Cl)c(=O)n12 [MLS000102002] | 47.4 µM
Cc1ccc(-c2cc(C(F)(F)F)n3ncc(C(=O)NCc4ccco4)c3n2)cc1 [MLS000109298] | 59.2 µM
CCCCNC(=O)c1ccc2nc(-c3ccco3)c(-c3ccco3)nc2c1 [MLS000119995] | 75.6 µM
